According to patent publication US20160297763A1, “Heteroaryl hydroxamic acid derivatives and their use in the treatment, amelioration or prevention of a viral disease” (priority 2011, published 2016):
Where two headings read alike, the source gives them in different places.

Key:
[1] = tested on: influenza A virus A/Aichi/2/68 (H3N2); assay: Cytopathic effect (CPE) assay H3N2; assay type: cell-based, influenza A virus (H3N2) on MDCK cells; settings: Influenza A virus; for IC50: H3N2, read-out: CPE H3N2 IC50; for inhibition at 20 µM: H3N2, activity conc 20 (μM per method); for inhibition at 10 µM: H3N2, activity conc 10 (μM per method); for inhibition at 5 µM: H3N2, activity conc 5 (μM per method)
Experimental: A possible measure of the […] antiviral activity of the compounds having the formula I or II is the CPE assay disclosed herein. […] In this connection, the reduction in the virus-mediated cytopathic effect (CPE) upon treatment with the compounds was calculated as follows: The cell viability of infected-treated and uninfected-treated cells was determined using an ATP-based cell viability assay (Promega). The response in relative luminescent units (RLU) of infected-untreated samples was subtracted from the response (RLU) of the infected-treated samples and then normalized to the viability of the corresponding uninfected sample resulting in % CPE reduction.
The influenza A virus (IAV) was obtained from American Tissue Culture Collection (A/Aichi/2/68 (H3N2); VR-547). Virus stocks were prepared by propagation of virus on Mardin-Darby canine kidney (MDCK; ATCC CCL-34) cells and infectious titres of virus stocks were determined by the 50% tissue culture infective dose (TCID50) analysis as described in Reed, L. J., and H. Muench. 1938, Am. J. Hyg. 27:493-497.
MDCK cells were seeded in 96-well plates at 2×10^4 cells/well using DMEM/Ham's F-12 (1:1) medium containing 10% foetal bovine serum (FBS), 2 mM L-glutamine and 1 antibiotics (all from PAA). Until infection the cells were incubated for 5 hrs at 37° C., 5.0 CO2 to form a ˜80% confluent monolayer on the bottom of the well. Each test compound was dissolved in DMSO and generally tested at 25 μM and 250 μM. In those cases where the compounds were not soluble at that concentration they were tested at the highest soluble concentration. The compounds were diluted in infection medium (DMEM/Ham's F-12 (1:1) containing 5 μg/ml trypsin, and 1% antibiotics) for a final plate well DMSO concentration of 1%. The virus stock was diluted in infection medium (DMEM/Ham's F-12 (1:1) containing 5 μg/ml Trypsin, 1% DMSO, and 1% antibiotics) to a theoretical multiplicity of infection (MOI) of 0.05.
After removal of the culture medium and one washing step with PBS, virus and compound were added together to the cells. In the wells used for cytotoxicity determination (i.e. in the absence of viral infection), no virus suspension was added. Instead, infection medium was added. Each treatment was conducted in two replicates. After incubation at 37° C., 5% CO2 for 48 hrs, each well was observed microscopically for apparent cytotoxicity, precipitate formation, or other notable abnormalities. Then, cell viability was determined using CellTiter-Glo luminescent cell viability assay (Promega). The supernatant was removed carefully and 65 μl of the reconstituted reagent were added to each well and incubated with gentle shaking for 15 min at room temperature. Then, 60 μl of the solution was transferred to an opaque plate and luminescence (RLU) was measured using Synergy HT plate reader (Biotek).
Relative cell viability values of uninfected-treated versus uninfected-untreated cells were used to evaluate cytotoxicity of the compounds. Substances with a relative viability below 80% at the tested concentration were regarded as cytotoxic and retested at lower concentrations.
Reduction in the virus-mediated cytopathic effect (CPE) upon treatment with the compounds was calculated as follows: The response (RLU) of infected-untreated samples was subtracted from the response (RLU) of the infected-treated samples and then normalized to the viability of the corresponding uninfected sample resulting in % CPE reduction.

[2] = biological target: PB2 cap binding domain (CBD) (Influenza A virus, UniProt Q9Q0V1); assay: biochemical; parameters: species or system avian H5N1 influenza virus
[3] = H3N2, activity conc 50 (μM per method), read-out: CPE H3N2 reduction (%)
[4] = read-out: CPE H3N2 reduction (%)
[5] = H3N2, activity conc 2 (μM per method), read-out: CPE H3N2 reduction (%)

Sequence of PB2 cap binding domain (CBD) (Q9Q0V1 318-483 limits assumed): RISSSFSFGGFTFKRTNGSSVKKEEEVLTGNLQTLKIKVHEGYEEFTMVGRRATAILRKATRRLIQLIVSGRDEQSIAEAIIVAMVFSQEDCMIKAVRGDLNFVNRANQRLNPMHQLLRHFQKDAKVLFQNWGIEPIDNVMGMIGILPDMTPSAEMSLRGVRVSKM

SMILES | Kd [2] [µM] | melting point [°C] | further results
Cc1c(-c2cccc(CN(C)C)c2)sc2nc(N)[nH]c(=O)c12 [SAV-7629] | 61 |  | inhibition at 50 µM [1, 3]: 38.3%; IC50 [1]: 35 µM
Cc1c(-c2cccc(C(N)=O)c2)sc2nc(N)[nH]c(=O)c12 [SAV-7599] | 5.3 |  | inhibition at 20 µM [1, 4]: -0.7%
Cc1c(Cc2ccccc2)sc2nc(N)[nH]c(=O)c12 [SAV-7521] | 6 |  | inhibition at 25 µM ([1]; H3N2, activity conc 25 (μM per method), read-out: CPE H3N2 reduction (%)): 33.6%
Nc1nc2sc(-c3ccccc3)c(Cl)c2c(=O)[nH]1 [SAV-7639] | 1.8 |  | inhibition at 50 µM ([1]; H3N2, read-out: CPE H3N2 reduction (%), activity conc 50 (μM per method)): 59.9%
Cc1c(-c2ccc(F)c(C#N)c2)sc2nc(N)[nH]c(=O)c12 [SAV-7611] | 1.1 |  | inhibition at 2 µM [1, 5]: -1%
Cc1c(-c2ccc(Cl)cc2)sc2nc(N)[nH]c(=O)c12 [SAV-7579] | 0.27 |  | inhibition at 20 µM [1, 4]: 11.3%
Cc1c(C2=CCNCC2)sc2nc(N)[nH]c(=O)c12 [SAV-7614] | 190 |  | inhibition at 50 µM [1, 3]: 10.6%
Cc1c(-c2ccc(F)c(C#N)c2F)sc2nc(N)[nH]c(=O)c12 [SAV-7628] | 7.3 |  | inhibition at 50 µM [1, 3]: 84.3%; IC50 [1]: 43 µM
COc1cc(-c2sc3nc(N)[nH]c(=O)c3c2C)ccc1Cl [SAV-7619] | 1.1 |  | inhibition at 2 µM [1, 5]: 3.4%
Cc1c(-c2cnn(C)c2)sc2nc(N)[nH]c(=O)c12 [SAV-7603] | 42 |  | 
Cc1c(-c2ccc(Cl)c(O)c2)sc2nc(N)[nH]c(=O)c12 [SAV-7622] | 2.4 |  | inhibition at 2 µM [1, 5]: 6.2%
Cc1c(-c2cc(C#N)ccc2Cl)sc2nc(N)[nH]c(=O)c12 [SAV-7617] | 2 |  | inhibition at 2 µM [1, 5]: 5.1%
Cc1c(-c2ccnc(Cl)c2F)sc2nc(N)[nH]c(=O)c12 [SAV-7633] | 1.2 |  | inhibition at 50 µM [1, 3]: 63.1%; IC50 [1]: 39 µM
Cc1c(-c2cccc(Cl)c2F)sc2nc(N)[nH]c(=O)c12 [SAV-7616] | 3.1 |  | inhibition at 10 µM [1, 4]: 68.7%; IC50 [1]: 34 µM
Cc1c(-c2cc(C#N)ccc2F)sc2nc(N)[nH]c(=O)c12 [SAV-7615] | 3 |  | inhibition at 20 µM [1, 4]: 59.2%; IC50 [1]: 12 µM
Cc1c(-c2ccc(F)c(C(F)(F)F)c2)sc2nc(N)[nH]c(=O)c12 [SAV-7613] | 1.5 |  | inhibition at 50 µM [1, 3]: 2.5%
Cc1c(-c2ccc(Cl)cc2F)sc2nc(N)[nH]c(=O)c12 [SAV-7618] | 0.65 |  | inhibition at 50 µM [1, 3]: 77.4%; IC50 [1]: 43 µM
Cc1c(-c2ccc(Cl)c(F)c2)sc2nc(N)[nH]c(=O)c12 [SAV-7624] | 0.2 |  | IC50 [1]: 64 µM
Cc1c(-c2cccc(C#N)c2)sc2nc(N)[nH]c(=O)c12 [SAV-7594] | 2 |  | inhibition at 5 µM [1, 4]: 14.5%; IC50 [1]: 14 µM
Cc1c(-c2c(F)ccc(Cl)c2F)sc2nc(N)[nH]c(=O)c12 [SAV-7637] | 1.1 |  | inhibition at 5 µM [1, 4]: 1.5%; IC50 [1]: 18 µM

SMILES | Kd [2] [µM] | melting point [°C] | further results
Cc1c(-c2cccc(C#N)c2F)sc2nc(N)[nH]c(=O)c12 [SAV-7627] | 4.2 |  | inhibition at 50 µM [1, 3]: 71.2%; IC50 [1]: 10 µM
Nc1nc2sc(-c3ccccc3)cc2c(=O)[nH]1 [SAV-7549] | 8.8 |  | inhibition at 50 µM [1, 3]: -2.4%
Cc1c(-c2ccccc2)sc2nc(NCCN(C)C)[nH]c(=O)c12 [SAV-7583] | 68 |  | 
Cc1ccccc1-c1sc2nc(N)[nH]c(=O)c2c1C [SAV-7596] | 11 |  | inhibition at 5 µM [1, 4]: 13.6%
CC(c1ccccc1)c1cc2c(=O)[nH]c(N)nc2s1 (stereo not drawn) [SAV-7604] | 6.4 |  | inhibition at 20 µM [1, 4]: -4.7%
Cc1c(-c2ccncc2)sc2nc(N)[nH]c(=O)c12 [SAV-7586] | 12 |  | inhibition at 15 µM ([1]; H3N2, activity conc 15 (μM per method), read-out: CPE H3N2 reduction (%)): 81.2%; IC50 [1]: 5.3 µM
Cc1c(-c2ccc(F)cc2)sc2nc(N)[nH]c(=O)c12 [SAV-7601] | 1.1 |  | inhibition at 50 µM [1, 3]: 69.2%
Nc1nc2sc(Cc3ccccc3)cc2c(=O)[nH]1 [SAV-7517] | 13 |  | inhibition at 10 µM [1, 4]: -2.64%
Cc1c(-c2cc(C(F)(F)F)cc(C(F)(F)F)c2)sc2nc(N)[nH]c(=O)c12 [SAV-7600] | 3.8 |  | inhibition at 2 µM ([1]; H3N2, read-out: CPE H3N2 reduction (%), activity conc 2 (μM per method)): 5.8%
Cc1c(-c2ccccc2)sc2nc(NCCCO)[nH]c(=O)c12 [SAV-7582] | 4.2 |  | inhibition at 50 µM [1, 3]: 53.1%
Cc1c(-c2ccc(F)nc2F)sc2nc(N)[nH]c(=O)c12 [SAV-7621] | 70 |  | inhibition at 25 µM ([1]; H3N2, read-out: CPE H3N2 reduction (%), activity conc 25 (μM per method)): 14.3%
COc1ccc(-c2sc3nc(N)[nH]c(=O)c3c2C)cc1 [SAV-7575] | 4 |  | inhibition at 20 µM [1, 4]: 9.02%
Cc1c(-c2cccc(C(F)(F)F)c2)sc2nc(N)[nH]c(=O)c12 [SAV-7581] | 1.4 |  | inhibition at 50 µM [1, 3]: 87.8%; IC50 [1]: 17 µM
Cc1c(-c2cccnc2)sc2nc(N)[nH]c(=O)c12 [SAV-7589] | 10 |  | inhibition at 50 µM [1, 3]: 63.1%; IC50 [1]: 27 µM
Cc1c(-c2ccccc2)sc2nc(NC3CCCCC3)[nH]c(=O)c12 |  | 265 to 270 | 
Cc1c(-c2ccccc2)sc2nc(NCCN)[nH]c(=O)c12 |  | 192 to 194 | 
Cc1c(-c2ccccc2)sc2nc(NCCN(C)C)[nH]c(=O)c12 |  | 199 to 201 | 
O=C(c1cc(N2CCCCC2)ccn1)N(O)CCCc1ccccc1 |  | 125 to 130 | 
O=C(c1cc(-c2ccc(Cl)cc2)ccn1)N(O)Cc1ccccc1 |  | 190 to 195 | 
Cc1c(-c2ccc(Cl)c(C(=O)N(C)C)c2)sc2nc(N)[nH]c(=O)c12 |  | 300 to 320 | 

SMILES | Kd [2] [µM] | melting point [°C] | further results
Cl.O=C(NO)c1cc(NS(=O)(=O)Cc2ccc(Cl)cc2)ccn1 |  | 210 to 230 | 
Cc1cc(-c2sc3nc(N)[nH]c(=O)c3c2C)ccc1Cl |  | 330 to 350 | 
Cl.O=C(NO)c1cc(NS(=O)(=O)C(c2ccccc2)c2ccccc2)ccn1 |  | 162 to 168 | 
O=C(NOCc1ccccc1)c1cc(N2CCCCC2)ccn1 |  | 135 to 140 | 
Cc1c(-c2ccc(F)cc2F)sc2nc(N)[nH]c(=O)c12 |  | 330 to 350 | 
Cl.O=C(NO)c1cc(NS(=O)(=O)Cc2cc(Cl)cc(Cl)c2)ccn1 |  | 203 to 205 | 
O=C(c1ccc(N2CCCCC2)cn1)N(O)Cc1ccccc1 |  | 110 to 115 | 
Cc1c(-c2cccc(F)c2)sc2nc(N)[nH]c(=O)c12 |  | 310 to 330 | 
O=C(NO)c1cc2ccccc2cn1 |  | 160 to 165 | 
CN(C)S(=O)(=O)c1cccc(-c2ccnc(C(=O)N(O)Cc3ccccc3)c2)c1 |  | 110 to 115 | 
CN(OCc1ccccc1)C(=O)c1cc2ccccc2cn1 |  | 70 to 75 | 
O=C(c1cc2ccccc2cn1)N(Cc1ccccc1)OCc1ccccc1 |  | 70 to 75 | 
Cc1c(-c2ccccc2)sc2nc(NCCCO)[nH]c(=O)c12 |  | 227 to 229 | 
CCONC(=O)c1ccc(-c2cccc(CN(C)Cc3ccccc3)c2)cn1.Cl (hydrate or solvate) |  | 85 to 90 | 
Cc1c(-c2ccnc(C(F)(F)F)c2)sc2nc(N)[nH]c(=O)c12 |  | 335 to 355 | 
Cc1c(-c2ccc(Cl)c(O)c2)sc2nc(N)[nH]c(=O)c12 |  | > 350 | 
O=C(NOCc1ccccc1)c1cc2ccccc2cn1 |  | 85 to 90 | 
Cl.O=C(NO)c1cc(NS(=O)(=O)Cc2cccc(Cl)c2Cl)ccn1 |  | 210 to 218 | 
